pIC50: −log10 of the molar value.
These molecules were tested against Cyclin-dependent kinase 5/CDK5 activator 1 (Homo sapiens, UniProt Q00535) (assay: Inhibition of CDK5/P25 GST-fusion protein assessed as substrate histone H1 phosphorylation by scintillation counting).
Assay type: protein-complex assay

Sequence of Cyclin-dependent kinase 5/CDK5 activator 1 (Q00535 whole entry, the tested form may be a part): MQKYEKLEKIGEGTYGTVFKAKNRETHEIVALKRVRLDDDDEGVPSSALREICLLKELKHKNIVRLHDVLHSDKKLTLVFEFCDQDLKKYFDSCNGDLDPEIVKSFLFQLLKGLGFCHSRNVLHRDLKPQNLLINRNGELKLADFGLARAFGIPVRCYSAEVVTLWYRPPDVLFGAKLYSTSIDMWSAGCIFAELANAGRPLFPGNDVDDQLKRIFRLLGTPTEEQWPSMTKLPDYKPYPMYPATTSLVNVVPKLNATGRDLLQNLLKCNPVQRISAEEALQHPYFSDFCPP
Sequence of Cyclin-dependent kinase 5/CDK5 activator 1 (Q15078 whole entry, further chain, the tested form may be a part): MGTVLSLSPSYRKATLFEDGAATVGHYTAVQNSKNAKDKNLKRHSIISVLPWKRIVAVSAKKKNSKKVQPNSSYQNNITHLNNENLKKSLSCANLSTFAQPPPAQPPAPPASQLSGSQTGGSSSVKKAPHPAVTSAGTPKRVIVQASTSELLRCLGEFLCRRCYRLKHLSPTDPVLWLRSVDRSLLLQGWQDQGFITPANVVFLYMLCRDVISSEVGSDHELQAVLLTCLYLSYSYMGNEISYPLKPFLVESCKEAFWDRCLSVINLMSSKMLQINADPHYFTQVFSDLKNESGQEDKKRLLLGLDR

Compound	pIC50
CCCOc1cc(NCc2ccccc2)c2ncn(C(C)C)c2c1	< 4.00
CCCCOc1cc(NCc2ccccc2)c2ncn(C(C)C)c2c1	< 4.00
COCCOc1cc(NCc2ccccc2)c2ncn(C(C)C)c2c1	< 4.00
CCC(CN(C)C)Oc1cc(NCc2ccccc2)c2ncn(C(C)C)c2c1 (configuration not stated)	< 4.00
CC(C)n1cnc2c(NCc3ccccc3)cc(OCC3CCN(C)CC3)cc21	< 4.00
CC(C)n1cnc2c(NCc3ccccc3)cc(OCCO)cc21	< 4.00
CCC(O)COc1cc(NCc2ccccc2)c2ncn(C(C)C)c2c1 (configuration not stated)	< 4.00
CC(C)n1cnc2c(NCc3ccccc3)cc(OCC3CCNCC3)cc21	< 4.00

Further lines, results first:

pIC50	Compound
< 5.00	COc1cc(NCc2ccccc2)c2ncn(C(C)C)c2c1
4.89	CCC(CO)Oc1cc(NCc2ccccc2)c2ncn(C(C)C)c2c1 (configuration not stated)
< 4.00	CCOc1cc(NCc2ccccc2)c2ncn(C(C)C)c2c1
< 5.00	CCC(COC)Oc1cc(NCc2ccccc2)c2ncn(C(C)C)c2c1 (configuration not stated)

Reference: ChEMBL document CHEMBL1641601, “Design, synthesis, and testing of an 6-O-linked series of benzimidazole based inhibitors of CDK5/p25” (Bioorg Med Chem, 2011)
